What was measured:
HLA-A2.1 = target: T1, HLA-A2.1 (Homo sapiens, UniProt P04439, D140Y/D185E/D98H/E176V/E277Q/G131W/G231S/I119V/I121R/I166T/I218V/L300P/L318F/N151K/N90K/P208A/P217A/Q86G/Q94H/R138H/R169H/T345S); format: cell-based; details: HPV16 peptides, 200 μg/ml peptide, 16 hours, 174CEM.T2 cells; for FI (Fluorescence Index): background set on 0, binding positive when ≧0.5
T1 construct: endogenous in cells; host or cells: 174CEM.T2
Description: Of all peptides a dilution of 1 mg/ml in 0.9% NaCl was made.
174CEM.T2 cells were cultured in Iscovel's modified Dulbecco's medium (Biochrom KG Seromed Berlin, Germany: F0465) supplemented with 100 IU/ml penicillin (Biocades Pharma, Leiderdorp, The Netherlands), 100 μg/ml kanamycin (Sigma St. Louis, USA:K-0254), 2 mM glutamine (ICN Biomedicals Inc. Costa Mesa, Calif., USA:15-801-55) and 10% fetal calf serum (FCS, Hyclone Laboratories Inc. Logan, Utah, USA:A-1115-L). Cells were cultured at a density of 2.5×10^5/ml during 3 days at 37° C., 5% CO2 in humified air.
174CEM.T2 cells were washed twice in culture medium without FCS and put in serum-free culture medium to a density of 2×10^6 cells/ml. Of this suspension 40 μl was put into a V bottomed 96 well plate (Greiner GmbH, Frickenhausen, Germany: 651101) together with 10 μl of the individual peptide dilutions (of 1 mg/ml). The end concentration is 200 μg/ml peptide with 8×10^4 174CEM.T2 cells. This solution was gently agitated for 3 minutes after which an incubation time of 16 hours at 37° C., 5% CO2 in humified air took place. Then cells were washed once with 100 μl 0.9% NaCl, 0.5% bovine serum albumin (Sigma St. Louis, USA: A-7409), 0.02% NaN3 (Merck Darmstadt, Germany:822335). After a centrifuge round of 1200 rpm the pellet was resuspended in 50 μl of saturating amounts of HLA-A2.1 specific mouse monoclonal antibody BB7.2 for 30 minutes at 4° C. Then cells were washed twice and incubated for 30 minutes with F(ab)2 fragments of goat anti-mouse IgG that had been conjugated with […] (Tago Inc Burlingame, Calif., USA: 4350) in a dilution of 1:40 and a total volume of 25 μl.
After the last incubation, cells were washed twice and fluorescence was measured at 488 nanometer on a FACScan flow-cytometer (Becton Dickinson, Franklin Lakes, N.J., USA).
The 174CEM.T2 cell line expresses “empty” and unstable HLA-A2.1 molecules that can be stabilized when a peptide is binding to the peptide presenting groove of these molecules. […] This leads to an increase in cell surface expression of the HLA-A2.1 molecule.
With background fluorescence level (without adding peptides) set on a Fluorescence Index level of 0, binding of a peptide was regarded positive when the level of fluorescence was ≧0.5.

HLA-A11.2 = assay: Immunochemical peptide-MHC binding assay, purified HLA-A11.2, radiolabeled probe […]; parameters: species or system human; details: IC50 of standard divided by IC50 of tested peptide, cysteines synthesized as alanine
Description: (§1) The method utilizes purified class I molecules and radiolabeled synthetic probes based on consensus peptides. Competitor peptides tested for their binding to the class I molecules compete for this binding with the radiolabeled consensus peptides. The HLA-A1, A2.1, A3.2, A11.2, and A24 molecules were isolated from the following cell lines, respectively: the EBV (Eppstein Barr Virus) transformed cell line Steinlin, the EBV transformed cell line JY, the EBV transformed cell line GM3107, the cell line BVR and the EBV transformed cell line KT3. After large scale culture, cells were lysed in NP40 (Fluka Biochemika, Buchs, Switzerland) and the lysate was passed over two pre-columns of inactivated sepharose CL 4B and Prot A Sepharose. Class I molecules were then purified from the cell lysate by affinity chromatography using Prot A Sepharose beads conjugated with B2.23.2 (anti-HLA-B and HLA-C) and anti-human HLA. The lysate was first depleted of B and C molecules by repeated passage over the B2.23.2 column.
(§2) After two days at 23° C. the percent of MHC-bound radioactivity was measured by size exclusion chromatography on a TSK2000 gel filtration as described by Sette et al. (1992).
(§3) Probe peptides were iodinated by using the Chloramine T method described by Buus et al. (1987). The sequences of the probe peptides used for the aforementioned HLA molecules were […] (SEQ ID NO:76) for A1, […] (SEQ ID NO:77) for A2.1, […] (SEQ ID NO:78) for A3.2, […] (SEQ ID NO:79) for A11.2, and […] (SEQ ID NO:80) for A24.
(§4) Each competitor peptide was tested in two to four completely independent experiments. Since cysteine containing peptides are susceptible to (air) oxidation during synthesis and handling, these peptides were synthesized with an alanine instead of a cysteine.

HLA-A3.2 = target: T2, HLA-A3.2 (Homo sapiens, UniProt P04439); format: binding; details: HLA-A3.2; IC50 of standard divided by IC50 of tested peptide; cysteines synthesized as alanine
T2 construct: endogenous in cells; host or cells: EBV transformed cell line GM3107 (protein purified from NP40 lysate)
T2 sequence (P04439 25-365): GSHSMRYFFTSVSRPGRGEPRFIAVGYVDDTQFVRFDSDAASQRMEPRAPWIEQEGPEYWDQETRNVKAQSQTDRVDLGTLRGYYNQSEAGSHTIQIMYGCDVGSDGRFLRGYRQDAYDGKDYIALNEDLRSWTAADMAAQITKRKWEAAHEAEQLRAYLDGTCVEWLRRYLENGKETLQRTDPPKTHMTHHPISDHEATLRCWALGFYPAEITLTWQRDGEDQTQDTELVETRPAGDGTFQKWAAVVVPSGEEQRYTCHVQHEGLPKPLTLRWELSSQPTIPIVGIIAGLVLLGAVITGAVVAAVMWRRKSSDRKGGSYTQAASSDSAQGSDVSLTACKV
T2 sequence (P61769 21-119, further chain): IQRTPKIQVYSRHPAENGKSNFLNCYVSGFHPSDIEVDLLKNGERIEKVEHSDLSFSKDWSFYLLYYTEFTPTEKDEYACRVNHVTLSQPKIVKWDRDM
Description: as §1, §2, §3, §4

HLA-A24 = assay: Immunochemical peptide-MHC binding assay, purified HLA-A24, radiolabeled probe AYIDNYNKF; parameters: species or system human; details: IC50 of standard divided by IC50 of tested peptide, cysteines synthesized as alanine
Description: as §1, §2, §3, §4

HLA-A1 = target: T3, HLA-A1 (Homo sapiens, UniProt P04439, A114D/A174V/A182V/D101N/E190D/Q94H/R68K/S129P/V100A/V91M/W191G); assay: Immunochemical peptide-MHC binding assay, purified HLA-A1, radiolabeled probe YLEPAIAKY; details: IC50 of standard divided by IC50 of tested peptide, cysteines synthesized as alanine
T3 construct: endogenous in cells; host or cells: EBV transformed cell line Steinlin (protein purified from NP40 lysate)
Description: as §1, §2, §3, §4

Row | Sequence | binding ratio to standard (HLA-A11.2) | binding ratio to standard (HLA-A3.2) | binding ratio to standard (HLA-A24) | other results
1 | CVYCKQQLL [HPV16 peptide 8, residues 37-45 of HPV16 protein E6] | 0.0450 | 0.0320 |  | MF (mean HLA-A2.1 fluorescence) (HLA-A2.1): 195.0; FI (Fluorescence Index) (HLA-A2.1): 2.0
2 | CYSLYGTTL [residues 87-95 of HPV16 protein E6] |  |  | 0.1200 | 
3 | EIDGPAGQA [residues 37-45 of HPV16 protein E7] |  |  |  | binding ratio to standard (HLA-A1): 0.025
4 | EYRHYCYSL [residues 82-90 of HPV16 protein E6] |  |  | 0.0460 | 
5 | HVDIRTLED [residues 73-81 of HPV16 protein E7] |  |  |  | binding ratio to standard (HLA-A1): 0.014
6 | HYCYSLYGT [residues 85-93 of HPV16 protein E6] |  |  | 0.0037 | 
7 | IVYRDGNPY [residues 59-67 of HPV16 protein E6] | 0.4700 | 3.0000 |  | 
8 | KCLKFYSKI [residues 72-80 of HPV16 protein E6] |  |  | 0.1100 | 
9 | KISEYRHYC [HPV16 peptide 9, residues 79-87 of HPV16 protein E6] | 0.0076 | 0.0044 |  | MF (mean HLA-A2.1 fluorescence) (HLA-A2.1): 211.7; FI (Fluorescence Index) (HLA-A2.1): 2.2
10 | LIRCINCQK [residues 107-115 of HPV16 protein E6] | 0.0120 | 3.7000 |  | 
11 | LLRREVYDF [residues 44-52 of HPV16 protein E6] |  |  | 0.0023 | 
12 | MHQKRTAMF [residues 1-9 of HPV16 protein E6] |  |  | 0.0049 | 
13 | MSCCRSSRT |  |  |  | binding ratio to standard (HLA-A1): 0.019
14 | PYAVCDKCL [residues 66-74 of HPV16 protein E6] |  |  | 0.0055 | 
15 | QQLLRREVY [residues 42-50 of HPV16 protein E6] | 0.0084 | 0.0058 |  | 
16 | RAHYNIVTF [residues 49-57 of HPV16 protein E7] |  |  | 0.0670 | 
17 | RFHNIRGRW [residues 131-139 of HPV16 protein E6] |  |  | 0.1000 | 
18 | SCCRSSRTR [residues 145-153 of HPV16 protein E6] | 0.0330 | 0.0200 |  | 
19 | TTDLYCYEQ [residues 19-27 of HPV16 protein E7] |  |  |  | binding ratio to standard (HLA-A1): 0.023
20 | VCDKCLKFY [residues 69-77 of HPV16 protein E6] | 0.0030 | 0.0025 |  | 
21 | VYCKQQLLR [residues 38-46 of HPV16 protein E6] | 0.0022 | 0.0012 | 0.0011 | 
22 | VYDFAFRDL [residues 49-57 of HPV16 protein E6] |  |  | 0.0610 | 
23 | WTGRCMSCC [residues 139-147 of HPV16 protein E6] |  |  |  | binding ratio to standard (HLA-A1): 0.020
24 | YAVCDKCLK [residues 67-75 of HPV16 protein E6] | 0.0074 | 0.0012 |  | 
25 | YNIVTFCCK [residues 52-60 of HPV16 protein E7] | 0.0060 | 0.0067 |  | 
26 | YRDGNPYAV [residues 61-69 of HPV16 protein E6] |  |  |  | binding ratio to standard (HLA-A1): 0.008

Source: patent US7364741B1, “Peptides of human Papilloma virus for use in human T cell response inducing compositions” (priority 1992, dated 2008)
